Assay results taken from patent US20210008028A1, “COMPOSITIONS AND METHODS FOR TREATING DIARRHEAL DISEASES” (VANESSA RESEARCH, INC., priority 2018, published 2021).

System: CTx-induced fluid secretion in the mouse intestine
Experiment: Cholera-toxin induced closed-loop mouse diarrheal model, individual polyphenols and their combination
Format: in vivo
Conditions: for Concentration that did not have any effect on the CTx-induced fluid secretion: individual compound, CTx 1 μg per loop; for Effect on fluid accumulation elicited by CTx: individual polyphenols, dose-dependent
Protocol: Following identification, individual reagents of cyanidin, delphinidin, epicatechin gallate and epigallocatechin gallate were acquired from ChromaDex (Chromadex, Irvine, Calif., USA) and tested in the same cholera-toxin induced closed-loop mouse diarrheal model described above. We sought and resolved the IC^50 concentration of each individual component as relevant for the treatment of cholera-toxin induced intestinal secretion.
Mice (19-35 g) were fasted for 24-48 h, weighed and anesthetized with Avertin Sigma-Aldrich, St. Louise, Mo., USA) (250 mg/kg IP induction dose f.b. 2.6 mg IP every 30-45 minutes as needed for maintenance of anesthesia). Body temperature was maintained at 37-38° C. using a heating pad.
Abdomen was opened. Small, and part of the large intestine were identified. 2-4 cm loops were ligated in the proximal jejunum beginning immediately downstream of Treitz ligament. Loops were separated by 1-2 cm of intervening small intestine. After ligation, one loop was injected with 100 μl of PBS, second loop was injected with CTx solution (Cayman chemicals, 1 μg in 100 μl PBS and third loop was injected with CTx and polyphenol solution (Chromadex, Irvine, Calif., USA) in 100 μl of PBS. Injected loops were photographed and carefully placed back into the abdominal cavity and then abdomen was closed with two sutures. After 4 to 6-hour incubation, animal was euthanized and entire length of small intestine, cecum and ascending transverse colon were removed as a single prep. Loops were excised, trimmed of fat, measured and weighted. Mice were euthanized by cervical dislocation or an overdose injection of Avertin. All animal protocols were approved by the Laboratory Animal Ethical Committee of Vanessa Research Inc. The loop weight/length ratio was calculated.
Flavan-3-ols and gallotannins stock solutions (stock dilutions (stored at −20 C)) and working dilutions (PBS) were designated and prepared as follows:
F1A—Cyanidin chloride (Chromadex, ASB-00003955-005 Lot #00003955-041) 5 mg dissolved in 1 ml methanol (Sigma-Aldrich, Saint Louise, Mo., USA) to 5 mg/ml stock. Original concentration used in experiments 0.05 mg/ml. Serial dilutions from 1:10 to 1:100,000 with increments of 1:10 were prepared for experiments.
F1B—Delphinidin chloride (Chromadex, ASB-00004125-001 Lot #00004125-504) 1 mg dissolved in 143 ul methanol to 7 mg/ml stock. Original concentration used in experiments 0.07 mg/ml. Serial dilutions from 1:10 to 1:100,000 with increments of 1:10 were prepared for experiments.
F1C—Epicatechin gallate (Chromadex, ASB-00005135-005 Lot #00005135-523) 5 mg dissolved in 1 ml methanol to 5 mg/ml stock. Original concentration used in experiments […] (1:50 dilution of 5 mg/ml stock). Serial dilutions from 1:10 to 1:100,000 with increments of 1:10 were prepared for experiments.
F1D—Epigallocatechin gallate (Chromadex, ASB-00005150-005 Lot #00005150-008) 5 mg dissolved in 1 ml methanol to 5 mg/ml stock. Original concentration used in experiments […] (1:33.4 of 5 mg/ml stock). Serial dilutions from 1:10 to 1:100,000 with increments of 1:10 were prepared for experiments.
However, in order to confirm or exclude the idea of synergism between multiple polyphenols in exertion of the anti-secretory effect following induction of fluid secretion with CTx, we attempted a treatment with a combination of all 4 polyphenols in the concentrations as indicated in Table 1. The ratio of concentrations (mg/ml) of individual members (cyaniding:delphinidin:epicatechin gallate:epigallocatechin gallate) in the combination was derived from Table 1 as 500:70:1:150 (weight ratio) accordingly.
Data analysis was done as follows: The formula was used as adapted from Yamamoto K., 1979:
Mass accumulation=Tm−(Cm/CL)×TL
After determining fluid accumulation in treated and untreated samples, a percent reduction in mass was performed using the mass obtained from the previous formula
5. The certain variables were removed based on the Exclusion Criteria for Data: […]

| SMILES | Concentration that did not have any effect on the CTx-induced fluid secretion [mg/mL] | Effect on fluid accumulation elicited by CTx |
| --- | --- | --- |
| Oc1cc(O)c2cc(O)c(-c3ccc(O)c(O)c3)[o+]c2c1.[Cl-] [F1A, Cyanidin chloride] | 5e-06 | significantly reduced fluid accumulation |
| Oc1cc(O)c2cc(O)c(-c3cc(O)c(O)c(O)c3)[o+]c2c1 [F1B, Delphinidin chloride] | 7e-08 | significantly reduced fluid accumulation |
| O=C(O[C@@H]1Cc2c(O)cc(O)cc2O[C@@H]1c1ccc(O)c(O)c1)c1cc(O)c(O)c(O)c1 [F1C, Epicatechin gallate] | 1e-08 | significantly reduced fluid accumulation |
| O=C(O[C@@H]1Cc2c(O)cc(O)cc2O[C@@H]1c1cc(O)c(O)c(O)c1)c1cc(O)c(O)c(O)c1 [F1D, Epigallocatechin gallate] | 1e-06 | significantly reduced fluid accumulation |
